{"source": "patent US7101863B2", "about": "“Pharmaceutical compositions with wound healing or anti-complementary activity comprising a dextran derivative” (Biodex, priority 2000, dated 2006)", "key": {"[1]": {"system": "gastric mucosa", "assay": "In-vivo gastric healing, macroscopic impairment of the gastric mucosa", "set-up": "species or system Sprague-Dawley rats; key: 0: Normal mucosa.; +: Small superficial hemorrhagic striae.; ++: Short and broad superficial hemorrhagic striae.; +++: Long and broad superficial hemorrhagic striae.; ++++: Perforations", "settings": "oral, dextran derivative and dextran T40 50 μg/kg, prostaglandin E2 10 μg/kg", "protocol": "The animals employed are 12-week-old male Sprague-Dawley rats weighing from 200 to 250 g. Three batches of animals are used, with each consisting of 4 animals:\nthe first batch is treated with a dextran derivative of the general formula DMCaBbSuc in which a=0.75, b=0.25 and c=0.15, at the rate of 50 μg/kg,\nthe second batch serves as the control, with the animals being treated with a native dextran T40 (Pharmacia Fine Chemical; weight average molecular mass Mw: 37 500 g/mol; Mw/Mn: 1.7, with Mn representing the number average mass), at the rate of 50 μg/kg,\nThis batch therefore corresponds to a positive control.\nThe dextran derivative, the native dextran and the prostaglandin E2 are dissolved in physiological saline and administered orally to the animals.\nThe animals are sacrificed at different stages of healing, namely on D2, D4, D7 and D14, with the healing process being considered on days from the date on which the gastric irritation is induced. The gastric mucosa is recovered with a view to carrying out two studies:\nquantification of the impairment of the gastric mucosa,\nTable V represents a compilation of the results of the macroscopic study of the inflammatory reaction in the gastric mucosa, with the study being effected in accordance with the following scale: […]"}, "[2]": {"system": "right eye", "assay": "In-vivo ocular healing after sodium hydroxide burn, histological studies", "set-up": "species or system New Zealand white rabbits", "settings": "100 μl three times daily; FGF-2 0.1 ng and/or dextran derivative 50 μg/ml", "quoted_text": "20 New Zealand white rabbits (10 males and 10 females) are used, with the rabbits being 1 year old and weighing from 2.5 to 3 kg; a 5.5 mm filter soaked in a 1N solution of sodium hydroxide was placed for 60 seconds on the right eye of these rabbits, which were then divided up into 4 groups of 5 animals each:\nthe first group is treated three times daily with 100 μl of a solution containing 0.1 ng of FGF-2 (Fibroblast Growth Factor-2);\nthe second group is treated three times daily with 100 μl of an isotonic solution containing 50 μg of a dextran derivative/ml of the general formula DMCaBbSuc in which a=0.75, b=0.31 and c=0.34;\nthe third group is treated three times daily with 100 μl of a solution containing 0.1 ng of FGF-2 and 50 μg of the above-mentioned dextran derivative/ml;\nthe fourth group (control group) is treated three times daily with 100 μl of a PBS buffer solution.\nThe speed of ocular healing in the four groups of animals is compared by means of histological studies carried out on days D1, D2, D4, D6 and D8."}, "[3]": {"system": "complement system", "assay": "In-vivo anticomplementary action, hemolytic CH50 assay on rat serum", "set-up": "species or system Sprague-Dawley rats", "settings": "injection with Sephadex G25 20 μg and 50 μg of test substance", "description": "The anticomplementary action is studied by means of a hemolytic or CH50 assay, in accordance with a protocol in which the serum of the rats, withdrawn at different time intervals, is activated by sheep erythrocytes which are sensitized by rabbit antibodies directed against sheep red blood cells (EA). By definition, one CH50 unit corresponds to the concentration of complement proteins (contained in one milliliter of serum) which is capable of inducing the hemolysis of 50% of 2×10^7 activated EAs in a reaction medium where the volume, the temperature and the reaction time are kept constant. The number of hemolytic sites per cell is calculated."}}, "data": [{"molecule": "CCCCC[C@H](O)/C=C/[C@H]1[C@H](O)CC(=O)[C@@H]1C/C=C\\CCCC(=O)O", "note": "[Prostaglandin E2, prostaglandin E2]", "values": [{"measurement": "Impairment of the gastric mucosa", "setting": "[1]; D2", "result": "++"}, {"measurement": "Impairment of the gastric mucosa", "setting": "[1]; D4", "result": "+"}, {"measurement": "Impairment of the gastric mucosa", "setting": "[1]; D7", "result": "+"}, {"measurement": "Impairment of the gastric mucosa", "setting": "[1]; D14", "result": 0}]}, {"molecule": "FGF-2: Fibroblast Growth Factor-2", "values": [{"measurement": "Duration of ocular healing (mean for each group of animals)", "setting": "[2]", "result": 5, "unit": "days"}]}, {"molecule": "native dextran", "values": [{"measurement": "Inhibition of the activation of the complement (CH50)", "setting": "[3]", "result": "did not have any effect"}]}]}
